According to ChEMBL document CHEMBL5653626 (ChemMedChem, 2016):

target: T1, Solute carrier family 2, facilitated glucose transporter member 1 (Homo sapiens, UniProt P11166); experiment: (§1) Inhibition of human GLUT1 expressed in human DLD-1 cells assessed as reduction in glucose uptake by measuring decrease in ATP production incubated for 15 mins in presence of oxidative phosphorylation inhibitor rotenone by CellTiter-Glo Luminescent Cell Viability Assay; assay type: cell-based; conditions: not given
T1 sequence (P11166 whole entry): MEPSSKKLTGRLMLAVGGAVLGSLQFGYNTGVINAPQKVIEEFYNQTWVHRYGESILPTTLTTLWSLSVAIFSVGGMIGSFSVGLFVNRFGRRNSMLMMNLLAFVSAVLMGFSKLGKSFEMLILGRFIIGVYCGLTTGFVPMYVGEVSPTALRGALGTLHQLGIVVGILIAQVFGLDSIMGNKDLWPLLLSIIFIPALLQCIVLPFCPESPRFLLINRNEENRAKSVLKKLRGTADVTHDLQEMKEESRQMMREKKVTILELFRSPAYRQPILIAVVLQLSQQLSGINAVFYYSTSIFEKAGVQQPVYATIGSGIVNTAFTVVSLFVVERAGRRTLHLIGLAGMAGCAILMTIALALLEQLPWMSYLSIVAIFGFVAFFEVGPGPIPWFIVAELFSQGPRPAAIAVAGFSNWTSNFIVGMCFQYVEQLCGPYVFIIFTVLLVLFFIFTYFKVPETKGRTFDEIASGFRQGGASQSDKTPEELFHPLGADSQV

Row | Compound | IC50 [nM]
1 | Cc1c(NC(=O)c2cc(C(N)=O)nc3cc(F)ccc23)c(C(F)(F)F)nn1Cc1ccc(OC(F)(F)F)cc1 | 5
2 | Cc1c(NC(=O)c2cc(C(N)=O)nc3cc(F)c(F)cc23)c(C(F)(F)F)nn1Cc1ccc(C#N)cc1 | 2
3 | Cc1nn(Cc2ccc(C#N)cc2F)c(C)c1NC(=O)c1cc(C(F)(F)F)nc2ccc(Br)cc12 | 8
4 | Cc1c(NC(=O)c2cc(C(N)=O)nc3cnccc23)c(C(F)(F)F)nn1Cc1ccc(C#N)cc1 | 10
5 | Cc1cccc2nc(C(N)=O)cc(C(=O)Nc3c(C(F)(F)F)nn(Cc4ccc(C#N)cc4)c3C)c12 | 18
6 | Cc1c(NC(=O)c2cc(C(N)=O)nc3cc(F)ccc23)c(C(C)C)nn1Cc1ccc(C#N)cc1 | 7

target: T2, Solute carrier family 2, facilitated glucose transporter member 2 (Homo sapiens, UniProt P11168); experiment: Inhibition of human GLUT2 expressed in CHO cells assessed as reduction in fructose uptake by measuring decrease in ATP production incubated for 15 mins in presence of oxidative phosphorylation inhibitor rotenone by CellTiter-Glo Luminescent Cell Viability Assay; assay type: cell-based; conditions: not given
T2 sequence (P11168 whole entry): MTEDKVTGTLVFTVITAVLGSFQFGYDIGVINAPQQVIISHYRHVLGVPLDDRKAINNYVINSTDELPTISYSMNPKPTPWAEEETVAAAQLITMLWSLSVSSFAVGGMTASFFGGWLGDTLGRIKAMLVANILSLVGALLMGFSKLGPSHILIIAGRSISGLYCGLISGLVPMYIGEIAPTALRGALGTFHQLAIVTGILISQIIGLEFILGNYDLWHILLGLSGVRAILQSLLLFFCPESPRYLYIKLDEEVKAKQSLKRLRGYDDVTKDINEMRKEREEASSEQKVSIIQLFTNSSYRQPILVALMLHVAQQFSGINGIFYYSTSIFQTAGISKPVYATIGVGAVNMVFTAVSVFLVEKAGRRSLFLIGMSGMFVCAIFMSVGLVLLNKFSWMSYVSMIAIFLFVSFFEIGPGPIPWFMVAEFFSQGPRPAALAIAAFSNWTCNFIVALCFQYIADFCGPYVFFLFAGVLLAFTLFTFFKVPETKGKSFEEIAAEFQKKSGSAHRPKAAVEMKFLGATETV

Row | Compound | IC50 [nM]
7 | Cc1nn(CC2CCOCC2)c(C)c1NC(=O)c1cc(C(F)(F)F)nc2ccc(Br)cc12 | 8500
8 | Cc1c(NC(=O)c2cc(C(N)=O)nc3cc(F)ccc23)c(C(F)(F)F)nn1Cc1ccc(C(C)(C)C)cc1 [BAY-588] | > 10000
9 | C=C1[C@@H](C)[C@H]2[C@H](Cc3ccccc3)NC(=O)[C@]23OC(=O)/C=C/[C@H](O)CCC[C@@H](C)C/C=C/[C@H]3[C@@H]1O [CYTOCHALASIN B] | 2800

target: T3, Solute carrier family 2, facilitated glucose transporter member 3 (Homo sapiens, UniProt P11169); experiment: Inhibition of human GLUT3 expressed in human GLUT1-/- DLD-1 cells assessed as reduction in glucose uptake by measuring decrease in ATP production incubated for 15 mins in presence of oxidative phosphorylation inhibitor rotenone by CellTiter-Glo Luminescent Cell Viability Assay; assay type: cell-based; conditions: not given
T3 sequence (P11169 whole entry): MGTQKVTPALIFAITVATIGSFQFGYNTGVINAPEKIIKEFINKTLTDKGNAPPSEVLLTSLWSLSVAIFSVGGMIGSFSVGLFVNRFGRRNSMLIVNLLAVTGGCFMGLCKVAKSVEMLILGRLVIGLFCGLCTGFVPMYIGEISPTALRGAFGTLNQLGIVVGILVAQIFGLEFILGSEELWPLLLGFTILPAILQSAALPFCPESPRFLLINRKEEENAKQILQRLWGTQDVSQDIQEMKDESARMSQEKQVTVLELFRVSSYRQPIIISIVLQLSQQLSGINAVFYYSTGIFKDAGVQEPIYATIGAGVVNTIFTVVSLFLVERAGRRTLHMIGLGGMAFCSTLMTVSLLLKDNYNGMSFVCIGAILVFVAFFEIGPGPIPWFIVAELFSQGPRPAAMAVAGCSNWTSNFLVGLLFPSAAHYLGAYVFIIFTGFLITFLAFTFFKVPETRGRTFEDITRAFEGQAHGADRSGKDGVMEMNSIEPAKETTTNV

Row | Compound | IC50 [nM]
10 | COc1ccc2nc(C(N)=O)cc(C(=O)Nc3c(C(F)(F)F)nn(Cc4ccc(C#N)cc4)c3C)c2c1 | 110
11 | Cc1cccc2nc(C(N)=O)cc(C(=O)Nc3c(C(F)(F)F)nn(Cc4ccc(C#N)cc4)c3C)c12 | 86

target: T4, Solute carrier family 2, facilitated glucose transporter member 4 (Homo sapiens, UniProt P14672); experiment: as §1, with “GLUT4” for “GLUT1”, “CHO” for “human DLD-1”, “preincubated” for “incubated”, “for 20 mins followed by glucose addition and measured after” for “for”; assay type: cell-based; conditions: not given
T4 sequence (P14672 whole entry): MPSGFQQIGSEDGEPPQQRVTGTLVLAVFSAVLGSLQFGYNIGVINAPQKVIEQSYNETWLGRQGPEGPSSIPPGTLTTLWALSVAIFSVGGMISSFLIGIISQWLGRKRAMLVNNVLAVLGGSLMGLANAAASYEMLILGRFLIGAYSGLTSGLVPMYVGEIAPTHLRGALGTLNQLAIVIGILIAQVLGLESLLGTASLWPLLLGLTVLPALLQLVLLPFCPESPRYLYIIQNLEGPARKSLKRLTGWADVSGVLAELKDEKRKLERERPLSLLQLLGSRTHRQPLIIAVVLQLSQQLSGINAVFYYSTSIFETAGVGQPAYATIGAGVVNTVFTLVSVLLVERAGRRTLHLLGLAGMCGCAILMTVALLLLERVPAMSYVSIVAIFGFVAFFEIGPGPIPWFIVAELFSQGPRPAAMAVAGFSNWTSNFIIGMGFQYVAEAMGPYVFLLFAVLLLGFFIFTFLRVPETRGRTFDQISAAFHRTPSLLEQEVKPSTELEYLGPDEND

Row | Compound | IC50 [nM]
12 | COc1ccc2nc(C(N)=O)cc(C(=O)Nc3c(C(F)(F)F)nn(Cc4ccc(C#N)cc4)c3C)c2c1 | 13
13 | Cc1ccc2nc(C(N)=O)cc(C(=O)Nc3c(C(F)(F)F)nn(Cc4ccc(C#N)cc4)c3C)c2c1 | 120
14 | Cc1c(NC(=O)c2cc(C(N)=O)nc3cc(F)ccc23)c(C(F)(F)F)nn1Cc1ccc(OC(F)(F)F)cc1 | 370
15 | Cc1c(NC(=O)c2cc(C(N)=O)nc3cc(F)c(F)cc23)c(C(F)(F)F)nn1Cc1ccc(C#N)cc1 | 180
16 | Cc1nn(Cc2ccc(C#N)cc2F)c(C)c1NC(=O)c1cc(C(F)(F)F)nc2ccc(Br)cc12 | 870
17 | Cc1nn(CCc2ccc(F)cc2)c(C)c1NC(=O)c1cc(C(F)(F)F)nc2ccc(Br)cc12 | 340
18 | Cc1c(NC(=O)c2cc(C(N)=O)nc3cc(F)ccc23)c(C(F)(F)F)nn1Cc1cccc(C#N)c1 | 950
19 | Cc1c(NC(=O)c2cc(C(N)=O)nc3cnccc23)c(C(F)(F)F)nn1Cc1ccc(C#N)cc1 | 61
20 | Cc1cccc2nc(C(N)=O)cc(C(=O)Nc3c(C(F)(F)F)nn(Cc4ccc(C#N)cc4)c3C)c12 | 17
21 | Cc1c(NC(=O)c2cc(C(N)=O)nc3cc(F)ccc23)c(C(F)(F)F)nn1Cc1ccc(C(C)(C)C)cc1 [BAY-588] | 500

system: not listed separately; experiment: Clearance in rat hepatocytes; assay type: ADME, cell-based, Hepatocyte; conditions: not given

Row | CLhep predicted [mL/min/kg] | Compound
22 | 48.3 | CCc1ccc(Cn2nc(C(F)(F)F)c(NC(=O)c3cc(C(N)=O)nc4cc(F)ccc34)c2C)cc1
23 | 16.7 | Cc1nn(Cc2ccc(C#N)cc2)c(C)c1NC(=O)c1cc(C(N)=O)nc2cc(F)ccc12
24 | 63.3 | Cc1cc(C)c2nc(-c3ccco3)cc(C(=O)Nc3c(C)nn(Cc4ccc(F)cc4)c3C)c2c1
25 | 31.7 | Cc1c(NC(=O)c2cc(-c3ncnn3C)nc3ccccc23)c(C(F)(F)F)nn1Cc1ccc(C#N)cc1
26 | 48.3 | Cc1nn(Cc2ccc(F)cc2)c(C)c1NC(=O)c1cc(C(F)(F)F)nc2ccc(Br)cc12
27 | 61.7 | Cc1ccc2nc(C)cc(C(=O)Nc3c(C)nn(Cc4ccc(F)cc4)c3C)c2c1

Row | Compound | CLhep predicted [mL/min/kg]
28 | Cc1ccc2nc(C(N)=O)cc(C(=O)Nc3c(C(F)(F)F)nn(Cc4ccc(C#N)cc4)c3C)c2c1 | 33.3

system: not listed separately; experiment: Stability in rat hepatocytes assessed as maximum bioavailability; assay type: ADME, Hepatocyte; conditions: read-out: Fmax

Row | Compound | Fh [%]
29 | Cc1ccc2nc(C(N)=O)cc(C(=O)Nc3c(C(F)(F)F)nn(Cc4ccc(C#N)cc4)c3C)c2c1 | 53

system: not listed separately; experiment: Clearance in human liver microsomes; assay type: ADME, Microsome; conditions: not given

Row | CLhep predicted [mL/min/kg] | Compound
30 | 16.5 | CCc1ccc(Cn2nc(C(F)(F)F)c(NC(=O)c3cc(C(N)=O)nc4cc(F)ccc34)c2C)cc1
31 | 7.5 | Cc1nn(Cc2ccc(C#N)cc2)c(C)c1NC(=O)c1cc(C(N)=O)nc2cc(F)ccc12
32 | 20 | Cc1ccc2nc(C)cc(C(=O)Nc3c(C)nn(Cc4ccc(F)cc4)c3C)c2c1

Row | Compound | CLhep predicted [mL/min/kg]
33 | Cc1c(NC(=O)c2cc(C(N)=O)nc3cc(F)ccc23)c(C(C)C)nn1Cc1ccc(C#N)cc1 | 14.5

system: not listed separately; experiment: Clearance in mouse liver microsomes; assay type: ADME, Microsome; conditions: not given

Row | CLhep predicted [mL/min/kg] | Compound
34 | 11.2 | Cc1nn(Cc2ccc(C#N)cc2)c(C)c1NC(=O)c1cc(C(N)=O)nc2cc(F)ccc12
35 | 56.7 | Cc1nn(Cc2ccc(C#N)cc2)c(C)c1NC(=O)c1cc(C(F)(F)F)nc2ccc(Br)cc12
36 | 35 | Cc1c(NC(=O)c2cc(-c3ncnn3C)nc3ccccc23)c(C(F)(F)F)nn1Cc1ccc(C#N)cc1
37 | 75 | Cc1nn(Cc2ccc(F)cc2)c(C)c1NC(=O)c1cc(C(F)(F)F)nc2ccc(Br)cc12

Row | Compound | CLhep predicted [mL/min/kg]
38 | Cc1ccc2nc(C(N)=O)cc(C(=O)Nc3c(C(F)(F)F)nn(Cc4ccc(C#N)cc4)c3C)c2c1 | 38.3

system: not listed separately; experiment: Stability in human liver microsomes assessed as maximum bioavailability; assay type: ADME, Microsome; conditions: read-out: Fmax

Row | Compound | Fh [%]
39 | Cc1ccc2nc(C)cc(C(=O)Nc3c(C)nn(Cc4ccc(F)cc4)c3C)c2c1 | 11
40 | Cc1c(NC(=O)c2cc(C(N)=O)nc3cc(F)ccc23)c(C(C)C)nn1Cc1ccc(C#N)cc1 | 34

system: not listed separately; experiment: Stability in mouse liver microsomes assessed as maximum bioavailability; assay type: ADME, Microsome; conditions: read-out: Fmax

Row | Compound | Fh [%]
41 | Cc1ccc2nc(C(N)=O)cc(C(=O)Nc3c(C(F)(F)F)nn(Cc4ccc(C#N)cc4)c3C)c2c1 | 57
42 | Cc1ccc2nc(C)cc(C(=O)Nc3c(C)nn(Cc4ccc(F)cc4)c3C)c2c1 | 25
